≈ marks a conversion by molar mass, not a printed value.

The test system of data set [1] is Staphylococcus aureus. The experiment in a line: Antibacterial activity against methicillin-resistant Staphylococcus aureus ATCC 43300 assessed as inhibition of bacterial growth incubated for 16 hrs by CLSI based broth microdilution method. The data set is classed as functional. (In general: Dilution methods test growth across graded concentrations, often in twofold steps.)

In a further data set the test system is 16HBE14o-. The experiment in a line: Cytotoxicity against human 16HBE14o- cells assessed as reduction in cell viability at 8 ug/ml incubated for 16 hrs by MTT assay. In kind it is toxicity, cell-based. Conditions: dose 8 µg/ml. For orientation: Tetrazolium assays rely on reduction of a dye to a coloured formazan, in cell work by metabolically active cells.

Data set [2] relates to Staphylococcus aureus. Briefly: Antibacterial activity against Staphylococcus aureus 144 assessed as inhibition of bacterial growth incubated for 16 hrs by CLSI based broth microdilution method. The data set is classed as functional.
Data set [3] deals with Staphylococcus aureus. The experiment in a line: Antibacterial activity against Staphylococcus aureus ATCC 29213 assessed as inhibition of bacterial growth incubated for 16 hrs by CLSI based broth microdilution method. In kind it is functional.
In data set [4] the test system is Staphylococcus aureus. The experiment in a line: Antibacterial activity against Staphylococcus aureus AD3 assessed as inhibition of bacterial growth incubated for 16 hrs by CLSI based broth microdilution method. The data set is classed as functional.
Data set [5] deals with Staphylococcus aureus. The experiment in a line: Antibacterial activity against Staphylococcus aureus SA17 assessed as inhibition of bacterial growth incubated for 16 hrs by CLSI based broth microdilution method. In kind it is functional.
The test system of a further data set is RAW264.7. The experiment in a line: Cytotoxicity against mouse RAW264.7 cells assessed as reduction in cell viability at 8 ug/ml incubated for 16 hrs by MTT assay. The conditions noted are these: raw264.7, 16 h, dose 8 µg/ml. In kind it is toxicity, cell-based.
Data set [6] concerns Staphylococcus aureus. Briefly: Antibacterial activity against methicillin-resistant Staphylococcus aureus ATCC 43300 assessed as log reduction in colony forming unit at 4 times MIC measured after 24 hrs by time kill assay. The data set is classed as functional.
The test system of data set [7] is Staphylococcus aureus. Briefly: Antibacterial activity against methicillin-resistant Staphylococcus aureus ATCC 43300 assessed as log reduction in colony forming unit at 4 times MIC measured after 3 hrs by time kill assay. The data set is classed as functional.

Usually MIC stands for the least concentration at which growth counts as inhibited. Take `C=C[C@]1(C)C[C@@H](OC(=O)CSc2nnc(-c3ccc(F)cc3)[nH]2)[C@]2(C)[C@H](C)CC[C@]3(CCC(=O)[C@H]32)[C@@H](C)[C@@H]1O`: the MIC in the data set with Staphylococcus aureus [1] worked out at 0.125 µg/mL (≈ 0.225 µM); in the data set on Staphylococcus aureus [2], 1 µg/mL (≈ 1.8 µM); in the data set with Staphylococcus aureus [3], 0.125 µg/mL (≈ 0.225 µM); with Staphylococcus aureus [4] it was 0.0625 µg/mL (≈ 0.112 µM); in the data set with Staphylococcus aureus [5], 1 µg/mL (≈ 1.8 µM). The Activity result in the data set on 16HBE14o- and in the data set on RAW264.7 was “Non-Toxic” each time.
As to `C=C[C@]1(C)C[C@@H](OC(=O)CSc2nnc(-c3cccc([N+](=O)[O-])c3)[nH]2)[C@]2(C)[C@H](C)CC[C@]3(CCC(=O)[C@H]32)[C@@H](C)[C@@H]1O`, the MIC in the data set on Staphylococcus aureus [1] was 0.125 µg/mL (≈ 0.215 µM); with Staphylococcus aureus [2], 2 µg/mL (≈ 3.43 µM); in the data set with Staphylococcus aureus [3], 0.25 µg/mL (≈ 0.429 µM); in the data set with Staphylococcus aureus [4], 0.0625 µg/mL (≈ 0.107 µM); in the data set with Staphylococcus aureus [5], 0.5 µg/mL (≈ 0.858 µM). The Activity result in the data set on 16HBE14o- and in the data set on RAW264.7 was “Non-Toxic” each time.
In the case of `C=C[C@]1(C)C[C@@H](OC(=O)CSc2nnc(-c3cccc(F)c3)[nH]2)[C@]2(C)[C@H](C)CC[C@]3(CCC(=O)[C@H]32)[C@@H](C)[C@@H]1O`, the MIC in the data set with Staphylococcus aureus [1] stood at 0.125 µg/mL (≈ 0.225 µM); with Staphylococcus aureus [2] it was 1 µg/mL (≈ 1.8 µM); with Staphylococcus aureus [3] it was 0.125 µg/mL (≈ 0.225 µM); in the data set on Staphylococcus aureus [4], 0.0625 µg/mL (≈ 0.112 µM); in the data set on Staphylococcus aureus [5], 0.5 µg/mL (≈ 0.9 µM). Moreover, the Activity entry in the data set on 16HBE14o- and with RAW264.7 was “Non-Toxic” in each case.
In the case of `C=C[C@]1(C)C[C@@H](OC(=O)CSc2nnc(-c3ccccc3Cl)[nH]2)[C@]2(C)[C@H](C)CC[C@]3(CCC(=O)[C@H]32)[C@@H](C)[C@@H]1O`, the minimal inhibitory concentration (MIC) came to 0.125 µg/mL (≈ 0.218 µM) in the data set on Staphylococcus aureus [1]; 0.5 µg/mL (≈ 0.874 µM) in the data set on Staphylococcus aureus [2]; 0.5 µg/mL (≈ 0.874 µM) in the data set with Staphylococcus aureus [3]; 0.125 µg/mL (≈ 0.218 µM) in the data set on Staphylococcus aureus [4]; 0.5 µg/mL (≈ 0.874 µM) with Staphylococcus aureus [5]. For the same molecule, the Activity entry with 16HBE14o- and with RAW264.7 was “Non-Toxic” each time.
For `C=C[C@]1(C)C[C@@H](OC(=O)CSc2nnc(-c3cccc(Cl)c3)[nH]2)[C@]2(C)[C@H](C)CC[C@]3(CCC(=O)[C@H]32)[C@@H](C)[C@@H]1O`, the MIC in the data set with Staphylococcus aureus [1] is 0.0625 µg/mL (≈ 0.109 µM); with Staphylococcus aureus [2] it was 0.25 µg/mL (≈ 0.437 µM); in the data set with Staphylococcus aureus [3], 0.125 µg/mL (≈ 0.218 µM); in the data set on Staphylococcus aureus [4], 0.125 µg/mL (≈ 0.218 µM); with Staphylococcus aureus [5], 0.125 µg/mL (≈ 0.218 µM). Moreover, the Activity result is “Non-Toxic” in the data set with 16HBE14o-, -9.23 log10CFU/ml in the data set on Staphylococcus aureus [6], “Non-Toxic” in the data set on RAW264.7 and -1 log10CFU/ml in the data set on Staphylococcus aureus [7].
With `C=C[C@]1(C)C[C@@H](OC(=O)CSc2nnc(-c3ccccc3C)[nH]2)[C@]2(C)[C@H](C)CC[C@]3(CCC(=O)[C@H]32)[C@@H](C)[C@@H]1O`, the MIC with Staphylococcus aureus [1] amounted to 0.0625 µg/mL (≈ 0.113 µM); in the data set with Staphylococcus aureus [2], 1 µg/mL (≈ 1.81 µM); with Staphylococcus aureus [3] it was 0.25 µg/mL (≈ 0.453 µM); in the data set on Staphylococcus aureus [4] it was 0.125 µg/mL (≈ 0.227 µM); in the data set on Staphylococcus aureus [5] it was 0.5 µg/mL (≈ 0.906 µM). Also, the Activity entry in the data set on 16HBE14o- and in the data set with RAW264.7 was “Non-Toxic” throughout.
With `C=C[C@]1(C)C[C@@H](OC(=O)CSc2nnc(-c3ccc(OC)cc3)[nH]2)[C@]2(C)[C@H](C)CC[C@]3(CCC(=O)[C@H]32)[C@@H](C)[C@@H]1O`, the minimal inhibitory concentration (MIC) in the data set on Staphylococcus aureus [1] is 0.125 µg/mL (≈ 0.22 µM); in the data set on Staphylococcus aureus [2], 1 µg/mL (≈ 1.76 µM); with Staphylococcus aureus [3], 0.25 µg/mL (≈ 0.44 µM); in the data set with Staphylococcus aureus [4] it was 0.0625 µg/mL (≈ 0.11 µM); in the data set on Staphylococcus aureus [5], 0.5 µg/mL (≈ 0.881 µM). Besides, the Activity result in the data set on 16HBE14o- and in the data set with RAW264.7 was “Non-Toxic” each time.
`C=C[C@]1(C)C[C@@H](OC(=O)CSc2nnc(-c3cccc(C)c3)[nH]2)[C@]2(C)[C@H](C)CC[C@]3(CCC(=O)[C@H]32)[C@@H](C)[C@@H]1O`: the minimum inhibitory concentration (MIC) was 0.25 µg/mL (≈ 0.453 µM) in the data set with Staphylococcus aureus [1]; 4 µg/mL (≈ 7.25 µM) in the data set with Staphylococcus aureus [2]; 0.25 µg/mL (≈ 0.453 µM) in the data set with Staphylococcus aureus [3]; 0.0625 µg/mL (≈ 0.113 µM) in the data set with Staphylococcus aureus [4]; 1 µg/mL (≈ 1.81 µM) in the data set with Staphylococcus aureus [5]. For the same molecule, the Activity entry in the data set on 16HBE14o- and in the data set with RAW264.7 was “Non-Toxic” in each case.
On to `C=C[C@]1(C)C[C@@H](OC(=O)CSc2nnc(-c3ccc(C)cc3)[nH]2)[C@]2(C)[C@H](C)CC[C@]3(CCC(=O)[C@H]32)[C@@H](C)[C@@H]1O`, for which the minimum inhibitory concentration (MIC) with Staphylococcus aureus [1] was found to be 0.125 µg/mL (≈ 0.227 µM); in the data set on Staphylococcus aureus [2], 1 µg/mL (≈ 1.81 µM); in the data set with Staphylococcus aureus [3], 0.125 µg/mL (≈ 0.227 µM); in the data set on Staphylococcus aureus [4], 0.0625 µg/mL (≈ 0.113 µM); in the data set on Staphylococcus aureus [5], 0.5 µg/mL (≈ 0.906 µM). Further, the Activity entry with 16HBE14o- and with RAW264.7 was “Non-Toxic” in each case.
For `C=C[C@]1(C)C[C@@H](OC(=O)CSc2nnc(-c3ccccc3[N+](=O)[O-])[nH]2)[C@]2(C)[C@H](C)CC[C@]3(CCC(=O)[C@H]32)[C@@H](C)[C@@H]1O`, the MIC with Staphylococcus aureus [1] amounted to 0.25 µg/mL (≈ 0.429 µM); in the data set with Staphylococcus aureus [2], 0.25 µg/mL (≈ 0.429 µM); with Staphylococcus aureus [3] it was 0.125 µg/mL (≈ 0.215 µM); in the data set with Staphylococcus aureus [4] it was 0.25 µg/mL (≈ 0.429 µM); in the data set with Staphylococcus aureus [5], 0.125 µg/mL (≈ 0.215 µM). Also, the Activity entry with 16HBE14o- and in the data set on RAW264.7 was “Non-Toxic” in each case.
On to `C=C[C@]1(C)C[C@@H](OC(=O)CSc2nnc(-c3ccccc3C(F)(F)F)[nH]2)[C@]2(C)[C@H](C)CC[C@]3(CCC(=O)[C@H]32)[C@@H](C)[C@@H]1O`, for which the minimal inhibitory concentration (MIC) in the data set with Staphylococcus aureus [1] worked out at 0.25 µg/mL (≈ 0.413 µM); with Staphylococcus aureus [2], 8 µg/mL (≈ 13.2 µM); in the data set on Staphylococcus aureus [3] it was 0.5 µg/mL (≈ 0.825 µM); with Staphylococcus aureus [4], 0.25 µg/mL (≈ 0.413 µM); in the data set with Staphylococcus aureus [5], 4 µg/mL (≈ 6.6 µM). In addition, the Activity entry in the data set on 16HBE14o- and in the data set with RAW264.7 was “Non-Toxic” throughout.
`C=C[C@]1(C)C[C@@H](OC(=O)CSc2nnc(-c3cccc(OC)c3)[nH]2)[C@]2(C)[C@H](C)CC[C@]3(CCC(=O)[C@H]32)[C@@H](C)[C@@H]1O`: the MIC with Staphylococcus aureus [1] worked out at 0.125 µg/mL (≈ 0.22 µM); in the data set with Staphylococcus aureus [2], 0.5 µg/mL (≈ 0.881 µM); with Staphylococcus aureus [3] it was 0.125 µg/mL (≈ 0.22 µM); in the data set with Staphylococcus aureus [4], 0.0625 µg/mL (≈ 0.11 µM); with Staphylococcus aureus [5], 0.5 µg/mL (≈ 0.881 µM). For the same molecule, the Activity entry in the data set with 16HBE14o- and in the data set on RAW264.7 was “Non-Toxic” throughout.
Turning to `C=C[C@]1(C)C[C@@H](OC(=O)CSc2nnc(-c3ccc([N+](=O)[O-])cc3)[nH]2)[C@]2(C)[C@H](C)CC[C@]3(CCC(=O)[C@H]32)[C@@H](C)[C@@H]1O`, the minimum inhibitory concentration (MIC) with Staphylococcus aureus [1] came to 0.125 µg/mL (≈ 0.215 µM); in the data set on Staphylococcus aureus [2] it was 2 µg/mL (≈ 3.43 µM); in the data set on Staphylococcus aureus [3], 0.25 µg/mL (≈ 0.429 µM); in the data set on Staphylococcus aureus [4], 0.0625 µg/mL (≈ 0.107 µM); in the data set with Staphylococcus aureus [5], 0.5 µg/mL (≈ 0.858 µM). The Activity result in the data set with 16HBE14o- and in the data set on RAW264.7 was “Non-Toxic” throughout.
In the case of `C=C[C@]1(C)C[C@@H](OC(=O)CSc2nnc(-c3ccc(Cl)cc3)[nH]2)[C@]2(C)[C@H](C)CC[C@]3(CCC(=O)[C@H]32)[C@@H](C)[C@@H]1O`, the MIC was found to be 0.125 µg/mL (≈ 0.218 µM) in the data set with Staphylococcus aureus [1]; 1 µg/mL (≈ 1.75 µM) in the data set on Staphylococcus aureus [2]; 0.0625 µg/mL (≈ 0.109 µM) in the data set on Staphylococcus aureus [3]; 0.125 µg/mL (≈ 0.218 µM) in the data set on Staphylococcus aureus [4]; 0.5 µg/mL (≈ 0.874 µM) in the data set with Staphylococcus aureus [5]. The Activity result in the data set on 16HBE14o- and with RAW264.7 was “Non-Toxic” in each case.

Source of the values: ChEMBL document CHEMBL5137011, “Semisynthetic pleuromutilin antimicrobials with therapeutic potential against methicillin-resistant Staphylococcus aureus by targeting 50S ribosomal subunit” (Eur J Med Chem, 2022).
